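Following 48 hours of exposure in 96-well plates, responses at five concentrations were used to interpolate endpoints linearly. GI50 is the concentration that inhibits growth by half. At the TGI there is no net growth.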
Experiments:
Assay in all cases: NCI anticancer screen, dose series, 48 h
[1] = test system: MCF7 breast
[2] = test system: MALME-3M melanoma
[3] = test system: HT29 colon
[4] = test system: SK-MEL-28 melanoma
[5] = test system: SNB-75 CNS
[6] = test system: HOP-92 NSCLC
[7] = test system: EKVX NSCLC
[8] = test system: HL-60(TB) leukemia
[9] = test system: CCRF-CEM leukemia
[10] = test system: NCI/ADR-RES ovarian

Compound	TGI [1] [µM]	TGI [2] [µM]	TGI [3] [µM]	TGI [4] [µM]	TGI [5] [µM]	TGI [6] [µM]	TGI [7] [µM]	TGI [8] [µM]	TGI [9] [µM]	TGI [10] [µM]	GI50 [1] [µM]	GI50 [2] [µM]	GI50 [3] [µM]	GI50 [4] [µM]	GI50 [5] [µM]	GI50 [6] [µM]	GI50 [7] [µM]	GI50 [8] [µM]	GI50 [9] [µM]	GI50 [10] [µM]
CNc1ccc([N+](=O)[O-])cc1C(=O)N1CCC[C@H]1CO	> 100	> 100	> 100	> 100	> 100	> 100	> 100	> 100	> 100	> 100	–	–	–	–	–	–	–	–	–	–
Cc1ccc2c(=O)c3c(O)c4c(cc3n(C)c2c1)OC(C)(C)C=C4	> 10	> 10	> 10	> 10	> 10	> 10	> 10	> 10	> 10	> 10	–	–	–	–	–	–	–	–	–	–
Nc1ncc(Cc2nn3c(COc4ccc(Cl)cc4)nnc3s2)s1	> 100	> 100	> 100	> 100	> 100	> 100	> 100	> 100	> 100	> 100	–	–	–	–	–	–	–	–	–	–
C[C@@H](CC(O)C(O)C(C)(C)O)C1CCC23CC12CCC1[C@@]2(C)CCC(=O)C(C)(C)C2CC(OC2OC(CO)C(O)C(O)C2O)[C@]13C (some centres not stated)	> 10	> 10	> 10	> 10	> 10	> 10	> 10	> 10	> 10	> 10	–	–	–	–	–	–	–	–	–	–
NC(=O)CN1CCN(c2nc(N3CCCC3)c3nc(Cl)c(NCc4ccccc4)nc3n2)CC1	16.6	16.3	18	18.5	24.4	20.6	30.3	19.2	> 50	40.9	–	–	–	–	–	–	–	–	–	–
O=C(NC(Cc1c[nH]c2ccccc12)C(=O)O)/C(=C/c1ccccc1)NC(=O)c1ccccc1 (configuration not stated)	> 100	> 100	> 100	> 100	> 100	94.8	> 100	> 100	> 100	> 100	–	–	–	–	–	–	–	–	–	–
COc1ccc(/C=C(\C#N)c2nc(-c3cc4ccccc4oc3=O)cs2)cc1	> 100	91.3	> 100	> 100	59.5	36.2	> 100	> 100	> 100	> 100	–	–	–	–	–	–	–	–	–	–
C=C1C(=O)O[C@H]2[C@@H](O)[C@H](C)CCC/C(C)=C/CC[C@@]3(C)O[C@@H]3C[C@@H]12	36.4	30.6	28.7	33.5	29.6	8.04	19	> 27.4	11.7	37.9	–	–	–	–	–	–	–	–	–	–
NC(Cc1ccccc1)C(=O)O (configuration not stated)	> 100	> 100	> 100	> 100	> 100	> 100	> 100	> 100	> 100	> 100	–	–	–	–	–	–	–	–	–	–
Cc1nc2ccccc2n1CCc1nc2ccccc2[nH]1	> 100	> 100	> 100	> 100	> 100	> 100	> 100	> 100	> 100	> 100	–	–	–	–	–	–	–	–	–	–
NCCCN1CCN(CCCNc2ccc3ncn4c5ccccc5c(=O)c2c34)CC1	> 25	6.27	6.7	19.6	8.71	> 25	9.03	10.1	> 25	> 25	–	–	–	–	–	–	–	–	–	–
Oc1cc(Br)cc2cc(Br)cnc12	> 100	58.2	> 100	> 100	> 100	83.8	37.4	0.654	6.27	> 100	–	–	–	–	–	–	–	–	–	–
C=C1C[C@]23CC[C@@H]4C(CO)(CO)CC(=O)C[C@]4(C)[C@@H]2C(O)C[C@H]1C3 (some centres not stated)	> 100	> 100	> 100	> 100	> 100	> 100	> 100	> 100	> 100	> 100	–	–	–	–	–	–	–	–	–	–
Cn1cnc([N+](=O)[O-])c1Sc1nncc2[nH]cnc12	> 100	> 100	> 100	> 100	> 100	> 100	> 100	> 100	> 100	> 100	–	–	–	–	–	–	–	–	–	–
C=C1C(=O)OC2C1CC1OC2C(C)CCC/C(C)=C\CCC1(C)O (configuration not stated)	57.4	80.6	> 91.1	43.1	51.5	30.1	79.4	21.2	22.2	55.2	–	–	–	–	–	–	–	–	–	–
CCCCN=C(OC1C=CCCC1)SC (configuration not stated)	> 100	> 100	> 100	> 100	> 100	> 100	> 100	> 100	> 100	> 100	–	–	–	–	–	–	–	–	–	–

Compound	TGI [1] [µM]	TGI [2] [µM]	TGI [3] [µM]	TGI [4] [µM]	TGI [5] [µM]	TGI [6] [µM]	TGI [7] [µM]	TGI [8] [µM]	TGI [9] [µM]	TGI [10] [µM]	GI50 [1] [µM]	GI50 [2] [µM]	GI50 [3] [µM]	GI50 [4] [µM]	GI50 [5] [µM]	GI50 [6] [µM]	GI50 [7] [µM]	GI50 [8] [µM]	GI50 [9] [µM]	GI50 [10] [µM]
COc1ccc(C2=C(N)c3ccccc3C2=O)cc1	> 100	> 100	> 100	> 100	78.7	> 100	> 100	> 100	> 100	> 100	–	–	–	–	–	–	–	–	–	–
Clc1cccc(Cl)c1C1ON=C(c2ccccc2)N1C12CC3CC(CC(C3)C1)C2 (configuration not stated)	> 100	47	> 100	> 100	18.3	75.3	> 100	8.72	56.5	84.4	–	–	–	–	–	–	–	–	–	–
Cc1cc(C(C)(C)C)c(OCCCN2CCOCC2)c(C(C)(C)C)c1	33.6	35	32.7	30.5	32.6	35	32.5	29	33.2	32	–	–	–	–	–	–	–	–	–	–
O.O=[Se](=O)(O)O.[NH-]C1CCCCC1[NH-].[Pt+2] (configuration not stated)	> 47.1	44	> 100	> 100	> 83	> 100	> 100	33.8	> 100	> 100	3.49	8.23	4.62	10.1	16.9	58.8	36.1	3.22	9.8	11.3
COc1cc(/C=C2\N=C(c3ccccc3)N(c3ccc(C(=O)c4ccccc4)cc3N3C(=O)/C(=C/c4cc(OC)c(OC)c(OC)c4)N=C3c3ccccc3)C2=O)cc(OC)c1OC	42.1	41.3	92	65.8	35.6	> 100	76.7	15.5	39.8	34.1	–	–	–	–	–	–	–	–	–	–
Cc1ccc2c3ccc4c(c3n(C)c2c1)C(=O)C=CC4=O	> 6.18	6.01	> 10	> 10	> 10	7.26	> 10	3.9	0.844	> 10	–	–	–	–	–	–	–	–	–	–
NC(=S)N1N=C(c2ccc3c(c2)CCC3)CC1c1ccccc1 (configuration not stated)	45.2	74.4	> 100	> 100	56.1	85.7	> 100	44.5	> 100	58.6	–	–	–	–	–	–	–	–	–	–
COc1cc(/C=C/C=C2\CC(C)C/C(=C\C=C\c3ccc(O)c(OC)c3)C2=O)ccc1O (configuration not stated)	42	31.1	31	45.5	32.3	23.4	> 100	33.8	15.6	77.4	–	–	–	–	–	–	–	–	–	–
Cc1ccc(N=Nc2cc(=O)[nH]c(=O)[nH]2)cc1C	29.4	27.5	4.51	34.3	15.3	33.4	34.7	7.18	> 100	> 100	–	–	–	–	–	–	–	–	–	–
CCOC(=O)C1C2C1C1C(C(=O)OCC)C21 (configuration not stated)	> 100	> 100	> 100	> 100	> 100	> 100	> 100	> 100	> 100	> 100	–	–	–	–	–	–	–	–	–	–
C=CC(=O)N1C/C(=C\c2ccc(F)cc2)C(=O)/C(=C/c2ccc(F)cc2)C1	1.42	2.41	0.285	–	1.94	8.62	3.88	> 100	> 100	20.1	–	–	–	–	–	–	–	–	–	–
CCCCC[C@@H]1OC(=O)[C@@]2(CC3c4ccccc4C2c2ccccc23)[C@H]1C(=O)OC	> 100	> 100	> 100	–	–	> 100	> 100	33.1	> 100	> 100	–	–	–	–	–	–	–	–	–	–
CCOC(=O)c1c(C)n(CCN2CCN(C)CC2)c2ccc(OC)cc12	> 100	74.6	71.2	32	> 100	80.5	> 100	58	71.4	> 100	–	–	–	–	–	–	–	–	–	–
C1CN(C23OC4(N5CCOCC5)C5C6CC(C7C6C4C72)C53)CCO1 (configuration not stated)	> 100	> 100	> 100	> 100	> 100	> 100	> 100	> 100	> 100	> 100	–	–	–	–	–	–	–	–	–	–
CCCCCCCCCCCOCCC1C(C(C)OCCN2CCCC2)OC2OC(C)(C)OC21 (configuration not stated)	6.58	3.08	3.5	3.08	7.07	4.75	10.8	3.36	> 23.9	19.6	–	–	–	–	–	–	–	–	–	–
C=C(Cl)C(=C)CCC(Cl)C(C)(C)Cl (configuration not stated)	> 100	> 100	> 100	> 100	> 100	> 100	> 100	> 100	> 100	> 100	–	–	–	–	–	–	–	–	–	–

From PubChem BioAssay (NCI)
